Laboratory results taken from PubChem BioAssay (NCI).
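96-well plates; 48 h exposure; 5 concentrations. Endpoints by linear interpolation between flanking doses. Not reached: highest tested concentration assigned. TGI denotes the concentration required for complete inhibition of growth.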

What was measured:
Test in all cases: growth of human tumour cells (NCI), 48 h
[1] = tested on: XF 498 CNS
[2] = tested on: TK-10 renal
[3] = tested on: UO-31 renal
[4] = tested on: HL-60(TB) leukemia
[5] = tested on: U251 CNS
[6] = tested on: UACC-62 melanoma
[7] = tested on: KM12 colon
[8] = tested on: NCI-H522 lung
[9] = tested on: DMS 273 small cell lung
[10] = tested on: HT29 colon
[11] = tested on: SK-MEL-2 melanoma
[12] = tested on: A498 renal
[13] = tested on: HOP-18 NSCLC
[14] = tested on: M19-MEL melanoma
[15] = tested on: MOLT-4 leukemia
[16] = tested on: KM20L2 colon
[17] = tested on: MALME-3M melanoma
[18] = tested on: SF-295 CNS
[19] = tested on: SF-268 CNS
[20] = tested on: COLO 205 colon
[21] = tested on: HOP-92 NSCLC
[22] = tested on: DLD-1 colon
[23] = tested on: SNB-78 CNS
[24] = tested on: HCT-116 colon
[25] = tested on: SF-539 CNS
[26] = tested on: SR leukemia
[27] = tested on: SK-MEL-5 melanoma
[28] = tested on: HOP-62 NSCLC
[29] = tested on: SK-OV-3 ovarian
[30] = tested on: SK-MEL-28 melanoma
[31] = tested on: SNB-75 CNS
[32] = tested on: NCI-H460 lung
[33] = tested on: M14 melanoma
[34] = tested on: OVCAR-3 ovarian
[35] = tested on: EKVX NSCLC
[36] = tested on: NCI-H23 lung
[37] = tested on: SW-620 colon
[38] = tested on: HCT-15 colon
[39] = tested on: LXFL 529 NSCLC
[40] = tested on: RXF-631 renal
[41] = tested on: OVCAR-5 ovarian
[42] = tested on: UACC-257 melanoma
[43] = tested on: NCI-H226 lung
[44] = tested on: SN12C renal
[45] = tested on: OVCAR-8 ovarian
[46] = tested on: CCRF-CEM leukemia
[47] = tested on: IGROV1 ovarian
[48] = tested on: DMS 114 small cell lung
[49] = tested on: ACHN renal
[50] = tested on: 786-0 renal
[51] = tested on: RXF 393 renal
[52] = tested on: A549 NSCLC
[53] = tested on: HCC-2998 colon
[54] = tested on: OVCAR-4 ovarian
[55] = tested on: SNB-19 CNS
[56] = tested on: CAKI-1 renal
[57] = tested on: K-562 leukemia
[58] = tested on: LOX IMVI melanoma

For O=C(CC1C(=O)Nc2ccccc2S1=O)Nc1ccccc1 (stereo not given), the TGI [1] was > 100 µM, the TGI [2] was > 100 µM and the TGI [3] was > 100 µM. For the same compound, the TGI [4] was > 100 µM, the TGI [5] was > 100 µM and the TGI [6] was > 100 µM. The TGI [7] was > 100 µM, the TGI [8] was > 100 µM and the TGI [9] was > 100 µM. For the same compound, the TGI [10] was > 100 µM, the TGI [11] was > 100 µM and the TGI [12] was > 100 µM. The TGI [13] was > 100 µM, the TGI [14] was > 100 µM and the TGI [15] was > 100 µM. The TGI [16] was > 100 µM, the TGI [17] was > 100 µM and the TGI [18] was > 100 µM. For the same compound, the TGI [19] was > 100 µM, the TGI [20] was > 100 µM and the TGI [21] was > 100 µM. The TGI [22] was > 100 µM, the TGI [23] was > 100 µM and the TGI [24] was > 100 µM. For the same compound, the TGI [25] was > 100 µM, the TGI [26] was > 100 µM and the TGI [27] was > 100 µM. The TGI [28] was > 100 µM, the TGI [29] was 62.6 µM and the TGI [30] was > 100 µM. The TGI [31] was > 100 µM, the TGI [32] was > 100 µM and the TGI [33] was > 100 µM. For the same compound, the TGI [34] was > 100 µM, the TGI [35] was > 100 µM and the TGI [36] was > 100 µM. The TGI [37] was > 100 µM, the TGI [38] was > 100 µM and the TGI [39] was > 100 µM. For the same compound, the TGI [40] was > 100 µM, the TGI [41] was > 100 µM and the TGI [42] was > 100 µM. The TGI [43] was > 100 µM, the TGI [44] was > 100 µM and the TGI [45] was > 100 µM. The TGI [46] was > 100 µM, the TGI [47] was > 100 µM and the TGI [48] was > 100 µM. For the same compound, the TGI [49] was > 100 µM, the TGI [50] was > 100 µM and the TGI [51] was 45 µM. The TGI [52] was > 100 µM, the TGI [53] was > 100 µM and the TGI [54] was > 100 µM. The TGI [55] was > 100 µM and the TGI [56] was > 100 µM.
In the case of Nc1ccc2c(c1)C(=O)N(OS(=O)(=O)c1ccccc1)C2=O, the TGI [1] is reported as > 100 µM, the TGI [2] is reported as > 100 µM and the TGI [3] is reported as > 100 µM. The TGI [4] was > 100 µM, the TGI [5] was > 100 µM and the TGI [6] was > 100 µM. The TGI [7] was > 100 µM, the TGI [8] was 60.7 µM and the TGI [9] was > 100 µM. For the same compound, the TGI [10] was > 100 µM, the TGI [11] was > 100 µM and the TGI [12] was > 100 µM. For the same compound, the TGI [13] was > 100 µM, the TGI [57] was > 100 µM and the TGI [14] was > 100 µM. For the same compound, the TGI [16] was > 100 µM, the TGI [17] was > 100 µM and the TGI [18] was > 100 µM. For the same compound, the TGI [19] was > 100 µM, the TGI [20] was > 100 µM and the TGI [21] was > 100 µM. The TGI [22] was > 100 µM, the TGI [23] was > 100 µM and the TGI [24] was > 100 µM. For the same compound, the TGI [25] was > 100 µM, the TGI [27] was > 100 µM and the TGI [28] was > 100 µM. For the same compound, the TGI [29] was > 100 µM, the TGI [30] was > 100 µM and the TGI [31] was > 100 µM. The TGI [32] was > 100 µM, the TGI [33] was > 100 µM and the TGI [34] was > 100 µM. The TGI [35] was > 100 µM, the TGI [36] was > 100 µM and the TGI [58] was > 100 µM. For the same compound, the TGI [37] was > 100 µM, the TGI [38] was > 100 µM and the TGI [39] was > 100 µM. For the same compound, the TGI [40] was > 100 µM, the TGI [41] was > 100 µM and the TGI [42] was > 100 µM. The TGI [43] was > 100 µM, the TGI [44] was > 100 µM and the TGI [45] was > 100 µM. For the same compound, the TGI [46] was > 100 µM, the TGI [47] was > 100 µM and the TGI [48] was > 100 µM. The TGI [49] was > 100 µM, the TGI [50] was > 100 µM and the TGI [51] was > 100 µM. For the same compound, the TGI [52] was > 100 µM, the TGI [53] was > 100 µM and the TGI [54] was > 100 µM. The TGI [55] was > 100 µM and the TGI [56] was > 100 µM.
CCOC(=O)C1=C(NC(C)(C)C)OC/C1=N\NC(=O)Cc1ccccc1 was tested, and the TGI [1] was > 100 µM, the TGI [2] was > 100 µM and the TGI [3] was > 100 µM. The TGI [4] was > 100 µM, the TGI [5] was > 100 µM and the TGI [6] was > 100 µM. The TGI [7] was > 100 µM, the TGI [8] was > 100 µM and the TGI [9] was > 100 µM. The TGI [10] was > 100 µM, the TGI [11] was > 100 µM and the TGI [12] was > 100 µM. For the same compound, the TGI [13] was > 100 µM, the TGI [57] was > 100 µM and the TGI [14] was > 100 µM. For the same compound, the TGI [15] was > 100 µM, the TGI [16] was > 100 µM and the TGI [17] was > 100 µM. The TGI [18] was > 100 µM, the TGI [19] was > 100 µM and the TGI [20] was > 100 µM. The TGI [21] was > 100 µM, the TGI [22] was > 100 µM and the TGI [23] was > 100 µM. The TGI [24] was > 100 µM, the TGI [25] was > 100 µM and the TGI [26] was > 100 µM. The TGI [27] was > 100 µM, the TGI [28] was > 100 µM and the TGI [29] was > 100 µM. For the same compound, the TGI [30] was > 100 µM, the TGI [31] was > 100 µM and the TGI [32] was > 100 µM. For the same compound, the TGI [33] was > 100 µM, the TGI [34] was > 100 µM and the TGI [35] was > 100 µM. For the same compound, the TGI [36] was > 100 µM, the TGI [58] was > 100 µM and the TGI [37] was > 100 µM. For the same compound, the TGI [38] was > 100 µM, the TGI [39] was > 100 µM and the TGI [40] was > 100 µM. For the same compound, the TGI [41] was > 100 µM, the TGI [42] was > 100 µM and the TGI [43] was > 100 µM. For the same compound, the TGI [44] was > 100 µM, the TGI [45] was > 100 µM and the TGI [46] was > 100 µM. For the same compound, the TGI [47] was > 100 µM, the TGI [48] was > 100 µM and the TGI [49] was > 100 µM. The TGI [50] was > 100 µM, the TGI [51] was > 100 µM and the TGI [52] was > 100 µM. The TGI [53] was > 100 µM, the TGI [54] was > 100 µM and the TGI [55] was > 100 µM. The TGI [56] was > 100 µM.
